Experimental data: patent US10051860B2, “Plant disease controlling composition and method for controlling plant disease” (SUMITOMO CHEMICAL COMPANY, LIMITED, priority 2010, dated 2018)

System: gray mold fungus (Botrytis cinerea)
Experiment: Cucumber leaf disk preventive test against gray mold fungus (Test Examples 1 and 2, Reference Examples)
Type: in vivo
Details: 15° C., four days
Description: To a SUS beaker are added 30 parts of the present compound (racemate), 5 parts of Soprophor FLK (polyoxyethylene tristyrylphenyl ether phosphate, produced by Rhodia Nicca Ltd.), 65 parts of ion-exchange water and 150 parts of glass beads (1.0 mm diameter). The mixture is subjected to grinding at a velocity of 1000 rpm with cooling to 10° C., and thereafter the glass beads are separated, so as to obtain a flowable formulation comprising the present compound (racemate).
True leaf of cucumber is punched out with cork borer to 13 mm in diameter to prepare a leaf disk. In 24 well microwell plate that is dispensed with 1 ml 0.8% water agar, the leaf disk is placed such that the upper side of the leaf is in an upward direction. Thereto is added 20 micro liter a testing solution prepared by mixing the flowable formulation of the present compound (racemate) prepared by the above procedure and a commercial liquid formulation of validamycin or a commercial wettable powders of polyoxins to a predetermined concentration to treat the leaf disk.
After confirming that the testing medical solution is dried, conidium of gray mold fungus (Botrytis cinerea) is suspended into potato dextrose broth (DIFCO) in a density of about 10^5 conidium/mL and is then subjected to a spray inoculation. After leaving to stand the leaf disk in a growth chamber set up at 15° C. for four days, an onset area on the leaf is measured and then calculated an onset area rate (hereinafter, referred to as an onset area rate of treated group).
The same operation is carried out with 20 micro liter water instead of 20 micro liter a testing medicine solution to calculate an onset area rate (hereinafter, referred to an onset area rate of non-treated group).
A preventive value is calculated from the above onset area rate of treated group and the onset area rate of non-treated group by the following equation: Preventive value (%)=100×(A−B)/A
A: an onset area rate of treated group
B: an onset area rate of non-treated group
The same operations as described in Test Example 1 are carried out with kasugamycin or streptomycin instead of validamycin or polyoxins, so as to calculate respective preventive values.
Also for comparison, the same operations as described in Test Example 1 are carried out with the exception that the testing medicine solution is substituted with a predetermined concentration of either a flowable formulation of the present amide compound or a commercial wettable powder of kasugamycin or streptomycin, so as to calculate respective preventive values.
For comparison, the same operations as described in Test Example 1 are carried out with the exception that the testing medicine solution is substituted with a predetermined concentration of a solution of a wettable powder of validamycin or polyoxins, so as to calculate a preventive value.

[1] = antibiotic compound alone 0.5 ppm
[2] = antibiotic compound alone 5.0 ppm

| Compound | preventive value (%) [1] | preventive value (%) [2] |
| --- | --- | --- |
| polyoxins | 11% | 15% |
| [H]/N=C(/N)N[C@H]1[C@H](O)[C@@H](O)[C@H](O[C@@H]2O[C@@H](C)[C@](O)(C=O)[C@H]2O[C@@H]2O[C@@H](CO)[C@H](O)[C@@H](O)[C@@H]2NC)[C@@H](N/C(N)=N\[H])[C@@H]1O [streptomycin] | 0% | 10% |
| C[C@H]1O[C@H](O[C@H]2[C@H](O)[C@@H](O)[C@@H](O)[C@H](O)[C@@H]2O)[C@@H](N)C[C@@H]1NC(=N)C(=O)O [kasugamycin] | 0% | 10% |
| OCC1=C[C@H](N[C@H]2C[C@H](CO)[C@@H](O[C@@H]3O[C@H](CO)[C@@H](O)[C@H](O)[C@H]3O)[C@H](O)[C@H]2O)[C@H](O)[C@@H](O)[C@@H]1O [validamycin] | 5% | 10% |
